US8455616B2, “Nuclear translocation peptide” (National Center for Global Health and Medicine, priority 2007, dated 2013)
Ends that are not written are not given here.

Columns and labels:
[1] = tested on: HeLa cells; experiment: Cytotoxicity test (damage to intracellular DNA, anti-γ-H2AX staining); assay type: cell-based, human; details: HeLa cells incubated 2 days with peptide, fragmented double-stranded DNA stained with anti-γ-H2AX antibody, FIG. 8
Description: Testing of the peptide of the present invention for damage to intracellular DNA was performed in the following manner. • (Day 1) HeLa cells were seeded onto a dish at a concentration of 5×10^4 cells/dish, and cultured in 10% FCS/DMEM medium (2 mL). • (Day 2) Recombinant Vpr (protein derived from Vpr), C45D18 (Peptide 9), and LR20 (Peptide 1) were added, and the cells were incubated for 2 days. • (Day 4) The following sequence of treatments was performed on the cells: The dish was washed with PBS→the cells were fixed with 4% paraformaldehyde→after incubation for 20 min on ice, the cells were washed with PBS→200 μL of 1% Triton X-100/2M HCl solution was added, and the cells were incubated at room temperature for 30 min→blocking with 200 μL of 1% BSA was performed at room temperature for 1 h→anti-γ-H2AX antibody solution was added, and the fragmented double-stranded DNA was stained (37° C. for 30 min)→cy3-anti-mouse IgG solution was added, and the cells were incubated at room temperature for 30 min→the nuclei were stained with DAPI/PBST (3 min)→the cells were mounted on glass slides.
In FIG. 8 the stained parts indicate fragmented DNA.

[2] = cited from earlier work
[3] = tested on: HeLa cells; experiment: Cellular and nuclear translocation capability of magnetic particles in HeLa cells; assay type: cell-based, human; details: peptide-CMDM conjugates, iron 0.7 mg/mL, thymidine-arrested HeLa cells, 18 h exposure, T2 relaxation time by NMR, FIG. 1
Description: With respect to the amount of cellular and nuclear translocation of the aforementioned peptide-magnetic nanoparticle conjugate, the translocation capability of the peptide of the present invention can be compared with that of a previous PTD by adding the conjugate to cultured cells, separating and recovering the cytoplasm and nuclei after letting the culture stand for a set period of time, measuring the T2 relaxation time by NMR, and measuring the amount of magnetic nanoparticles taken up by the cells.
After 18 h of exposure, the cells were washed with PBS and recovered, and centrifugal separation (2000 rpm for 5 min) was performed to precipitate the cells into pellets. After the cells were resuspended by adding 700 mL of PBS, they were lysed using a Dounce homogenizer and centrifuged (2000 rpm for 5 min) into pellets. […] Then the T2 relaxation time of each resulting fraction was measured by NMR. Concurrently, the protein concentration of each fraction was measured by BSA protein assay.
Because a fixed relation is established between T2 relaxation time and magnetic substance concentration, the magnetic substance concentration can be calculated by assuming that the T2 relaxation of the sample is the same before and after the test. The calculated concentration was corrected further using the protein concentration.

CC[C@H](C)[C@H](NC(=O)[C@H](CCCNC(=N)N)NC(=O)[C@H](CO)NC(=O)[C@H](Cc1c[nH]cn1)NC(=O)[C@H](CCCNC(=N)N)NC(=O)[C@H](CS)NC(=O)CNC(=O)[C@@H](NC(=O)[C@H](CCCNC(=N)N)NC(=O)[C@H](Cc1ccccc1)NC(=O)[C@H](Cc1c[nH]cn1)NC(=O)[C@@H](NC(=O)[C@H](Cc1ccccc1)NC(=O)[C@H](CC(C)C)NC(=O)[C@H](CC(C)C)NC(=O)[C@H](CCC(N)=O)NC(=O)[C@H](CCC(N)=O)NC(=O)[C@H](CC(C)C)NC(=O)[C@@H](NC(=O)[C@@H](N)CCCNC(=N)N)[C@@H](C)CC)[C@@H](C)CC)[C@@H](C)CC)C(=O)O [Peptide 1, RILQQLLFIHFRIGCRHSRI]
DNA damage (cytotoxicity) [1]: extent of DNA damage is decreased

DTWAGVEAIIRILQQLLFIHFRIGCRH [Peptide 9]
translocation capability relative to a protein originating in Vpr ([2]; Taguchi et al., Biochem. Biophys. Res. Comm., 320, 18 (2004)): stronger translocation capability than a protein originating in Vpr | translocation capability of conjugates with enzymatic proteins relative to the Tat peptide ([2]; conjugates of C45D18 and enzymatic proteins, into a cell and into a nucleus, Taguchi et al. (2004)): greater than that of the Tat peptide

Peptide 12: PTD peptide discovered during research to enhance the function of the Tat peptide (Mukai et al.), synthesized with additional GGC (THRLPRRRRRR; YM-3 peptide)
cellular translocation capability relative to the Tat peptide ([2]; Mukai et al., Biol. Pharm. Bull. 29(8), 1570 (2006)): approximately three times higher than that of the Tat peptide

R I L Q Q L L F I H F R I G C [Peptide 3]
cellular and nuclear translocation capability [3]: best cellular and nuclear translocation capability

RIFIHFRIGC [Peptide 4, R I F I H F R I G C]
DNA damage (cytotoxicity) [1]: no damage to DNA was seen
